Measured values: patent US20240066135A1, “DRUG CONJUGATES AND USES THEREOF” (SUPERTRANS MEDICAL LTD, priority 2020, published 2024)
Converted amounts (≈) assume the structure as drawn. Read-outs that look alike come from different tables or passages of the source.

Columns and labels:
[1] = Plasma protein binding, human; type: in vitro ADME; conditions: read-out: PPB, % bound, human (converted)
[2] = system: E. coli ATCC 25922; assay: 9 h thigh muscle infection model in neutropenic mice; type: in vivo, CD-1 mice
Protocol: Using a screening-based strategy, preliminary proof-of-concept studies with V-r employed an abbreviated 9 h thigh muscle infection model in male CD-1 mice rendered neutropenic. To that end, E. coli ATCC 25922 was inoculated at 9.7×10^4 CFUs into both thigh muscles per mouse (n=5 per experimental group). V-r was administered q2h SC (110-880 mg/kg total dose) starting 1 h post-infection. At 9 h, thigh homogenates were prepared and CFUs were enumerated following culture on CLED agar.

[3] = system: MRSA infections; conditions: 150 mg/kg in rats, 100 mg/kg in dogs, 15 mg/kg in humans; cited from earlier work
[4] = Red blood cell lysis; type: cell-based; conditions: human, human erythrocytes; FBS-deficient media
[5] = system: A. baumannii; assay: MIC testing, A. baumannii; type: cell-based; conditions: Acinetobacter baumannii
Protocol: (§1) Susceptibility testing was performed based on Clinical and Laboratory Standards Institute (CLSI) guidelines M07-A11 and M100-S29. All bacterial strains were recovered from long-term storage (−80° C.) and cultured on nutrient agar (NA) at 37° C. under aerobic conditions for approximately 20 h, except E. coli ATCC BAA-2469 that was recovered from long-term storage on nutrient agar before further passaging onto nutrient agar+25 μg/mL imipenem (according to ATCC guidelines). Minimum inhibitory concentration (MIC) assays were performed in BD non cation adjusted Mueller-Hinton broth (MHB) in 96-well flat-bottomed polystyrene plates (Corning #3370). Test articles and comparator antibiotics were prepared in sterile water to a concentration of 5.12 mg/mL. For each antibiotic stock, 2× top concentrations of test compounds and comparators were prepared in the appropriate growth medium and added to well 1 of a 96-well plate. Serial 1:1 dilutions were performed from columns 1-11 (changing tips at each dilution step); column 12 served as a positive (growth) control. A negative (sterility) control was set up in available spare wells. A suspension of each strain was prepared in sterile phosphate-buffered saline (PBS) to a density equivalent to a 0.5 McFarland standard. […]
(§2) MICs were determined using standard methodologies as previously described. […]

[6] = system: E. coli; assay: MIC testing, E. coli; type: cell-based
Protocol: Susceptibility testing was performed based on Clinical and Laboratory Standards Institute (CLSI) guidelines M07-A11 and M100-S29. All bacterial strains were recovered from long-term storage (−80° C.) and cultured on nutrient agar (NA) at 37° C. under aerobic conditions for approximately 20 h, except E. coli ATCC BAA-2469 that was recovered from long-term storage on nutrient agar before further passaging onto nutrient agar+25 μg/mL imipenem (according to ATCC guidelines). Minimum inhibitory concentration (MIC) assays were performed in BD non cation adjusted Mueller-Hinton broth (MHB) in 96-well flat-bottomed polystyrene plates (Corning #3370). Test articles and comparator antibiotics were prepared in sterile water to a concentration of 5.12 mg/mL. For each antibiotic stock, 2× top concentrations of test compounds and comparators were prepared in the appropriate growth medium and added to well 1 of a 96-well plate. Serial 1:1 dilutions were performed from columns 1-11 (changing tips at each dilution step); column 12 served as a positive (growth) control. A negative (sterility) control was set up in available spare wells. A suspension of each strain was prepared in sterile phosphate-buffered saline (PBS) to a density equivalent to a 0.5 McFarland standard. Bacterial suspensions were then diluted 1:150 in the appropriate medium and used to inoculate assay plates (columns 1 through 11) to provide a starting inoculum of ˜2 to 8×10^5 CFU/mL. […] The MIC was defined as the lowest concentration of test articles resulting in complete inhibition of visible growth.
MICs were determined using standard methodologies as previously described. […] Time-kill assays were performed against uropathogenic E. coli strains, including the sequence type 131 (ST131) NCTC-13341 isolate.

[7] = Plasma protein binding, mouse; type: in vitro ADME; conditions: read-out: PPB, % bound, mouse
[8] = HepG2 cell cytotoxicity; type: cell-based; conditions: human, HepG2 cells; FBS-deficient media
[9] = Thermodynamic solubility in saline; type: physicochemical; conditions: saline or isotonic, thermodynamic from solid; read-out: TD solubility in saline
[10] = hRPTEC biomarkers cytotoxicity screen; type: cell-based; conditions: human, human renal proximal tubular epithelial cells (hRPTEC); cell count, nuclear size, DNA structure, mitochondrial mass and membrane potential, phospholipidosis, glutathione content
[11] = system: E. coli UTI89; assay: 24 h thigh muscle infection model in neutropenic mice; type: in vivo, CD-1 mice
Protocol: FIG. 4 illustrates the efficacy of V-r in reducing E. coli UTI89 bacterial burden in a 24 h thigh muscle infection model in neutropenic CD-1 mice.
In a 24 h thigh muscle infection model, E. coli UTI89 was inoculated at 7.8×10^4 CFU into one thigh muscle per mouse (n=5-8/group) and treated with V-r (total dose of […]) using a q6h dosing regimen from 1 h post-infection. […] Overall, V-r caused a ˜4 to 7.5 log10 reduction in bacterial burden, as compared to vehicle control, over the entire dose range.

[12] = Single SC administration tolerability; type: in vivo; conditions: highest dose tested (800 mg/kg), male CD-1 mice
[13] = system: E. coli ATCC 25922; type: cell-based
[14] = PK profiles in mice, IV vs SC administration; type: in vivo; conditions: IV 10 mg/kg, SC 20 mg/kg
Description: FIG. 11 illustrates the feasibility of adaptation of V-r as a low-dose therapy to treat E. coli-associated cUTIs via sub-cutaneous administration.
Adaptation of V-r as a low-dose therapy to treat E. coli-associated cUTIs via sub-cutaneous administration was further investigated. Vancomycin can only be given by IV infusion therapy to treat systemic infections. Due to the very low dose therapy of V-r, additional modes of administration of the drug can be pursued besides IV administration pending retention of high bioavailability. In mice, the exposure of V-r (measured by the AUC) following sub-cutaneous administration was essentially 100% of that afforded by IV administration (see FIG. 11). […] Such a finding is critically important for hospitalized cUTIs (and other infections) whereby the SC route might offer a “go-home sooner” of patients and thus early discharge from the hospital for continued low dose V-r therapy from outpatient departments or within the clinical community settings. Such an approach facilitates the practice of prudent antimicrobial stewardship.

[15] = system: E. coli UNT057-1 (CTX-M-15); assay: Complicated urinary tract infection (cUTI) model
Protocol: Female C3H/Hej mice were placed on a 5% glucose water starting 6 days prior to infection and then for the remainder of the study. The complicated urinary tract infection (cUTI) model was established via trans-urethral injection of the bacterial inoculum. Mice were anesthetized with Ketamine HCL at 40 mg/kg body weight and Xylazine at 6 mg/kg body weight in 0.15 ml PBS injected intra-peritoneally. Using a dissection scope (10×), the urethral orifice was located and a tapered PE10 catheter (attached to MRE40 tubing and a 23 G blunt hub syringe) was inserted and 0.05 ml of the prepared inoculum slowly injected. […] E. coli UNT057-1 (CTX-M-15) strain was used for the cUTI model and inoculum grown in Tryptic soy broth (TSB) to 1.0×10^10 CFU/ml suspension. […] A positive control of meropenem was given at 300 mg/kg q12h by sub-cutaneous administration for a total of 3 days. All treatment groups consisted of 10 animals with CFU (kidneys, bladder and urine) bacterial counts at 7 days post-infection used as the endpoint for efficacy. At 7 days post-infection, urine was collected from mice into 1.5 ml sterile tubes and then mice were euthanized. Kidneys and bladders were homogenized, and the homogenates and urine were serially diluted in 1×PBS and plated onto Brain heart infusion and 0.5% charcoal agar. Agar plates were incubated at 37° C., and colony counts were recorded the following day.

[16] = in vivo; conditions: male, CD-1, mouse, plasma, sc
[17] = in vivo; conditions: beagle, dog, iv, 25 mg/kg
[18] = LogD (Octanol/buffer); type: physicochemical
[19] = system: GPB; assay: MIC testing, GPB; type: cell-based; conditions: FIG. 2
Protocol: as §1, §2

[20] = for Cl / Vd: CD-1 mice
[21] = for AUC: mice
[22] = total dose over 24 h 1272 mg/kg
[23] = total dose over 9 h 110 mg/kg, q2h SC
[24] = total dose over 24 h 200 mg/kg, q6h
[25] = total dose over 24 h 1050 mg/kg
[26] = total dose over 24 h 1400 mg/kg

## CN[C@H](CC(C)C)C(=O)N[C@H]1C(=O)N[C@@H](CC(N)=O)C(=O)N[C@H]2C(=O)N[C@H]3C(=O)N[C@H](C(=O)N[C@H](C(=O)O)c4cc(O)cc(O)c4-c4cc3ccc4O)[C@H](O)c3ccc(c(Cl)c3)Oc3cc2cc(c3O[C@@H]2O[C@H](CO)[C@@H](O)[C@H](O)[C@H]2O[C@H]2C[C@](C)(N)[C@H](O)[C@H](C)O2)Oc2ccc(cc2Cl)[C@H]1O [Vancomycin, vancomycin, reference compound]
[1]
  fraction unbound: 0.5
[2]; dose equivalent to the highest dose of V-r
  impact on E. coli burden: failed to significantly impact E. coli burden
[2]; total dose over 9 h 800 mg/kg
  Log10 Group Geometric mean (CFU/g) ± SD: 6.60 ± 0.66 Log10 CFU/g
  Log10 change from vehicle (CFU/g): −0.51 Log10 CFU/g
[3]
  target AUC in the treatment of MRSA infections: approximately 400 mg·h/l
[4]
  CC50: > 750 µM
[5]; read-out: MICs
  MIC: 64 to 256 µg/mL (≈ 44.2 to 177 µM)
[6]; Escherichia coli, read-out: MICs
  MIC: 64 to 256 µg/mL (≈ 44.2 to 177 µM)
[7]
  fraction unbound: 0.5
[8]
  CC50: > 750 µM
[9]
  solubility: > 50 mg/mL
[10]
  CC50: > 100 µM
[11]; [22]
  Log10 Group Geometric mean (CFU/g) ± SD: 8.48 ± 1.31 Log10 CFU/g
  Log10 change from vehicle (CFU/g): −1.23 Log10 CFU/g

## CN[C@H](CC(C)C)C(=O)N[C@H]1C(=O)N[C@@H](CC(N)=O)C(=O)N[C@H]2C(=O)N[C@H]3C(=O)N[C@H](C(=O)N[C@H](C(=O)N[C@H](CCCNC(=N)N)C(N)=O)c4cc(O)cc(O)c4-c4cc3ccc4O)[C@H](O)c3ccc(c(Cl)c3)Oc3cc2cc(c3O[C@@H]2O[C@H](CO)[C@@H](O)[C@H](O)[C@H]2O[C@H]2C[C@](C)(N)[C@H](O)[C@H](C)O2)Oc2ccc(cc2Cl)[C@H]1O [V-r, vancomycin-D-arginine]
[12]
  tolerability of a single SC administration: well tolerated
[1]
  fraction unbound: 0.24
[13]
  FOR (at 8 × MIC): <2.32 × 10^−10
[2]; 440 mg/kg
  reduction below stasis: 1.0 log10
[2]; 880 mg/kg
  reduction below stasis: 1.3 log10
[2]; 9 h model, total dose
  extrapolated static dose: 215 mg/kg
[2]; [23]
  Log10 Group Geometric mean (CFU/g) ± SD: 5.87 ± 0.60 Log10 CFU/g
  Log10 change from vehicle (CFU/g): −1.24 Log10 CFU/g
[2]; total dose over 9 h 440 mg/kg
  Log10 Group Geometric mean (CFU/g) ± SD: 4.14 ± 0.63 Log10 CFU/g
  Log10 change from vehicle (CFU/g): −2.97 Log10 CFU/g
[2]; total dose over 9 h 880 mg/kg
  Log10 Group Geometric mean (CFU/g) ± SD: 3.76 ± 0.40 Log10 CFU/g
  Log10 change from vehicle (CFU/g): −3.35 Log10 CFU/g
[14]
  exposure following sub-cutaneous vs IV administration: essentially equivalent
[4]
  CC50: > 750 µM
[15]; bladder, q12h for 3 days
  q12h dose with maximal abrogation of bacterial burden, bladder: 25 mg/kg
[15]; kidney
  required daily 24 h dose to cause maximal reductions in bacterial burden: 100 mg/kg
[15]; kidney, q12h for 3 days
  q12h dose with maximal abrogation of bacterial burden, kidney: 50 mg/kg
[15]; urine and bladder
  required daily 24 h dose to cause maximal reductions in bacterial burden: 50 mg/kg
[15]; urine, q12h for 3 days
  q12h dose with maximal abrogation of bacterial burden, urine: 25 mg/kg
[5]
  MIC: 8 µg/mL (≈ 4.99 µM)
[6]
  MIC range: 8 to 16 µg/mL
[6]; Escherichia coli
  MIC: 8 µg/mL (≈ 4.99 µM)
  MIC90: 16 µg/mL (≈ 9.97 µM)
[8]
  CC50: > 750 µM
[9]
  solubility: 373 mg/mL (≈ 232000 µM)
[16]; 20 mg/kg
  AUC: 42.7 µg·h/mL
  Cmax: 20.4 µg/mL
  half-life: 0.87 h
[16]; 121 mg/kg
  AUC: 366 µg·h/mL
  Cmax: 98.4 µg/mL
  half-life: 1.29 h
[17]
  AUC: 580 µg·h/mL
[18]
  logD: < -4.01
[19]
  antimicrobial potency towards a number of GPB: remained intact
[20]; SC 20 mg/kg
  Cl: 7.8 mL/min/kg
  Vd: 0.59 L/kg
[20]; SC 121 mg/kg
  Cl: 5.4 mL/min/kg
  Vd: 0.60 L/kg
[20]; SC administration
  elimination kinetics: first-order elimination
[21]; single IV 25 mg/kg, 25 mg/kg
  AUC: 43.27 µg·h/mL
[21]; single IV 50 mg/kg, 50 mg/kg
  AUC: 103.64 µg·h/mL
[21]; single IV 1-50 mg/kg
  PK profile: linear
[10]
  CC50: > 100 µM
[11]; all doses higher than 200 mg/kg
  reduction of burden below stasis: up to 2.7 log10 CFU/g
[11]; static dose
  total 24 h dose reducing E. coli burden to pre-treatment (stasis) levels: 250 mg/kg
[11]; thigh muscle model
  reduction of E. coli burden: > 7 log10 CFU/g
[11]; [24]
  Log10 Group Geometric mean (CFU/g) ± SD: 5.60 ± 2.28 Log10 CFU/g
  Log10 change from vehicle (CFU/g): −4.11 Log10 CFU/g
[11]; total dose over 24 h 400 mg/kg
  Log10 Group Geometric mean (CFU/g) ± SD: 3.27 ± 1.88 Log10 CFU/g
  Log10 change from vehicle (CFU/g): −6.43 Log10 CFU/g
[11]; total dose over 24 h 700 mg/kg
  Log10 Group Geometric mean (CFU/g) ± SD: 2.58 ± 0.25 Log10 CFU/g
  Log10 change from vehicle (CFU/g): −7.13 Log10 CFU/g
[11]; [25]
  Log10 Group Geometric mean (CFU/g) ± SD: 2.08 ± 0.89 Log10 CFU/g
  Log10 change from vehicle (CFU/g): −7.63 Log10 CFU/g
[11]; [26]
  Log10 Group Geometric mean (CFU/g) ± SD: 2.68 ± 1.38 Log10 CFU/g
  Log10 change from vehicle (CFU/g): −7.03 Log10 CFU/g
